From patent publication US12187722B2, “Small molecule inhibitors of TEAD transcription factors” (The General Hospital Corporation, priority 2019, dated 2025)
Where “and” joins values, the source holds several entries; their conditions need not be identical. Identical values can stand only once. Like-named read-outs stand apart in the source and are kept apart here.

Assays:
TEAD2 [1] = target: T1, TEAD2 (Homo sapiens (Human), UniProt Q15562); assay: In vitro palmitoylation (TEAD2 autopalmitoylation, streptavidin blot); assay type: biochemical; conditions: compound at 10 μM
In short: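 Recombinant GST- or His6-TEAD2 (500 ng) preincubated 15 min with compound, then 30 min with 1 μM alkyne palmitoyl-CoA; click-labelled with biotin-azide (1 h, RT). Streptavidin-HRP blot band intensity quantified after SDS-PAGE; inhibition of autopalmitoylation relative to DMSO control.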

TEAD2 [2] = target: T1, TEAD2; assay: CMP assay (CPM fluorescence detection of free CoA); assay type: biochemical
Description: 7-Diethylamino-3-(4′-Maleimidylphenyl)-4-Methylcoumarin (CPM), which reacts with thiol of CoA liberated in the enzymatic reaction, and gives fluorescent signal (excitation ˜350-380, emission-460-480). The assay detects the product (free CoA) which is produced from palmitoyl-CoA as a method to detect the enzymatic activity. Test compounds that inhibit TEAD activity are therefore able to block the CMP fluorescent signal.
TEAD2/4 protein (10 μL of a 50 ng/μL solution) and a solution the test compound (0.5 μL, variable concentration) were pre-incubated for 30 min at r.t. A mixture prepared from MES pH 6.4 buffer (6.5 μL of a 50 mM solution), EDTA (1 μL of a 20 mM solution), palmitoyl-CoA (1 μL of a 20 μM solution), and 7-diethylamino-3-(4′-maleimidylphenyl)-4-methylcoumarin (1 μL of a 10 μM solution) was added and the resulting mixture was mixed well using a pipette. The solution was then incubated at r.t. for 30-120 min. in the dark, and fluorescence was detected at […] every 30 min. until the fluorescence signal is saturated. An IC50 for the ability of the compound to inhibit fluorescence is calculated from the results.

[3] = Table 2, read-out: IC50 μM (CMP assay)
[4] = Table 3, unit inferred, read-out: TEAD2 palmitoylation IC50

T1 sequence (Q15562 whole entry): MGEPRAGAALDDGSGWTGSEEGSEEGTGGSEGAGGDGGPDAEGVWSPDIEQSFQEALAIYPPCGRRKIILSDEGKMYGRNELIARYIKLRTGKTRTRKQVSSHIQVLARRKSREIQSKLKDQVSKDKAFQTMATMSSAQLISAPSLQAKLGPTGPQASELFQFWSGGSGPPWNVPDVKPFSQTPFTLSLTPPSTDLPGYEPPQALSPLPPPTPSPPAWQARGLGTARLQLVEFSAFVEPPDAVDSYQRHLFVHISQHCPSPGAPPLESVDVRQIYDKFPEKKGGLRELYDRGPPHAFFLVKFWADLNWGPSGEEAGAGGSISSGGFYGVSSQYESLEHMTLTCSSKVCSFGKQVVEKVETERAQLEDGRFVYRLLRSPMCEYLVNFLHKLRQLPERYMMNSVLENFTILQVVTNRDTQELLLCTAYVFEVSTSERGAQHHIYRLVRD

inhibition at 10 µM (TEAD2 [1]; Table 2) [%] | inhibition at 10 µM (TEAD2 [1]; Table 3) [%] | IC50 (TEAD2 [2]; [4]) [µM] | SMILES | also measured
100 | – | – | CN(c1ccc(N(C)c2ncccc2C(=O)O)cc1)c1ccc(C23CC4CC(CC(C4)C2)C3)cc1Cl [Compound 109] | IC50 (TEAD2 [2]; [3]): 0.346 µM
89 | – | – | COc1ccc(Nc2ccc(N(C)c3ccc(C45CC6CC(CC(C6)C4)C5)cc3)cc2)c(C(=O)O)c1 [Compound 250] | IC50 (TEAD2 [2]; [3]): 0.274 µM
– | 100 | 0.51 | COc1ccc(Nc2ccc(N(C)c3ccc(OCC(F)(F)F)cc3)cc2C)c(C(=O)O)c1 [CP-565] | –
100 | – | – | CN(c1ccc(N(C)c2ccccc2C(=O)O)cc1)c1ccc(C23CC4CC(CC(C4)C2)C3)cc1 [Compound 100] | IC50 (TEAD2 [2]; [3]): 0.207 µM
– | 76 | 0.38 | COc1ccc(Nc2ccc(N(C)c3ccc(S(F)(F)(F)(F)F)cc3)cc2)c(C(=O)O)c1 [CP-528] | –
– | 96 | 0.22 | COc1ccc(Nc2ccc(N(C)c3ccc(OC(F)(F)F)cc3)cc2C)c(C(=O)O)c1 [CP-590] | –
– | 93 | 1.45 | COc1ccc(Nc2ccc(N(C)c3ccc(C(F)(F)F)cc3)cc2)c(C(=O)O)c1 [CP-521] | –
– | 90 | 0.011 | COc1ccc(Nc2ccc(N(C)c3ccc(C4CCCCC4)cc3)cc2C)c(C(=O)O)c1 [CP-560] | –
– | 100 | 0.01 | COc1ccc(Nc2ccc(N(C)c3ccc(N4CCCCC4)cc3)cc2)c(C(=O)O)c1 [CP-555] | –
– | 94 | 0.36 | COc1ccc(Nc2ccc(N(C)c3ccc(S(F)(F)(F)(F)F)cc3)cc2C)c(C(=O)O)c1 [CP-571] | –
– | 99 | 0.38 | O=C(O)c1ccccc1Nc1ccc(Oc2ccc(C3CCCCC3)cc2Cl)nc1 [CP-566] | –
– | 78 | 0.03 | COc1ccc(Nc2ccc(N(C)c3ccc(C4CCC(C)(C)CC4)cc3)cc2)c(C(=O)O)c1 [CP-593] | –
– | 73 | 0.65 | COc1ccc(Nc2ccc(Oc3ccc(C45CC6CC(C)(CC(C)(C6)C4)C5)cc3Cl)cc2F)c(C(=O)O)c1 [CP-570] | –
100 | – | – | O=C(O)c1cccnc1Nc1ccc(Oc2ccc(C34CC5CC(CC(C5)C3)C4)cc2Cl)cc1 [Compound 252] | IC50 (TEAD2 [2]; [3]): 0.053 µM
– | – | – | C=CC(=O)c1ccccc1Nc1cccc(Nc2ccc(C34CC5CC(CC(C5)C3)C4)cc2)c1 | inhibition at 10 µM (TEAD2 [1]): 70%; IC50 (TEAD2 [2]; CMP assay, read-out: CMP IC50): 5.09 µM
– | 74 | 0.05 | COc1ccc(Nc2ccc(N(C)c3ccc(C4CCCCC4)cc3)nc2)c(C(=O)O)c1 [CP-598] | –
100 | – | – | CN(c1ccc(N(C)c2ccccc2C(=O)O)cc1)c1ccc(C23CC4CC(C)(CC(C)(C4)C2)C3)cc1 [Compound 178] | IC50 (TEAD2 [2]; [3]): 0.227 µM
– | 97 | 1.57 | COc1ccc(Nc2ccc(N(C)c3ccc(OC(F)(F)F)cc3)cc2F)c(C(=O)O)c1 [CP-589] | –
100 | – | – | O=C(O)c1cccc(Nc2cc(Nc3ccc(C45CC6CC(CC(C6)C4)C5)cc3Cl)cc(C(F)(F)F)c2)n1 [Compound 119] | IC50 (TEAD2 [2]; [3]): 0.106 µM

inhibition at 10 µM (TEAD2 [1]; Table 2) [%] | inhibition at 10 µM (TEAD2 [1]; Table 3) [%] | IC50 (TEAD2 [2]; [4]) [µM] | SMILES | also measured
– | – | 0.21 | COc1ccc(Nc2ccc(N(C)c3ccc(C4CCC(C)CC4)cc3)cc2)c(C(=O)O)c1 (stereo not drawn) [CP-584] | % of inhibition of TEAD2 palmitoylation at 10 μM (TEAD2 [1]; Table 3): 85%
100 | – | – | CC12CC3CC(C)(C1)CC(c1ccc(Oc4ccc(Nc5ccccc5C(=O)O)cc4)c(Cl)c1)(C3)C2 [Compound 253] | IC50 (TEAD2 [2]; [3]): 0.099 µM
– | 100 | 0.59 | COc1ccc(Nc2ccc(N(C)c3ccc(OCC(F)(F)F)cc3)cc2)c(C(=O)O)c1 [CP-553] | –
95 | – | – | CN(c1ccc(N(C)c2ncccc2C(=O)O)cc1)c1ccc(C23CC4CC(CC(C4)C2)C3)cc1 [Compound 139] | IC50 (TEAD2 [2]; [3]): 0.312 µM
100 | – | – | CC12CC3CC(C)(C1)CC(c1ccc(Oc4ccc(Nc5ncccc5C(=O)O)cc4)c(Cl)c1)(C3)C2 [Compound 254] | IC50 (TEAD2 [2]; [3]): 0.297 µM
– | 96 | 0.01 | COc1ccc(Nc2ccc(N(C)c3ccc(C)cc3)cc2)c(C(=O)O)c1 [CP-554] | –
97 | – | – | CN(c1ccc(Oc2ccc(C34CC5CC(CC(C5)C3)C4)cc2Cl)cc1)c1ccccc1C(=O)O [Compound 168] | IC50 (TEAD2 [2]; [3]): 0.173 µM
– | 91 | 0.002 | COc1ccc(Nc2ccc(N(C)c3ccc(C45CC6CC(CC(C6)C4)C5)cc3)cc2C)c(C(=O)O)c1 [CP-551] | –
– | 86 | 0.32 | COc1ccc(Nc2ccc(N(C)c3ccc(C4CC5CCC4C5)cc3)cc2F)c(C(=O)O)c1 (stereo not drawn) [CP-585] | –
– | 86 | 0.45 | COc1ccc(Nc2ccc(N(C)c3ccc(OC(F)(F)F)cc3)cc2)c(C(=O)O)c1 [CP-548] | –
– | – | 0.23 | COc1ccc(Nc2ccc(N(C)c3ccc(C4CCC(C)CC4)cc3)cc2)c(C(=O)O)c1 (stereo not drawn) [CP-583] | % of inhibition of TEAD2 palmitoylation at 10 μM (TEAD2 [1]; Table 3): 96%
– | 96 | 0.75 | Cc1cc(N(C)c2ccc(C3CCCCC3)cc2)ccc1Nc1ccc(OC2CC2)cc1C(=O)O [CP-619] | –
– | 96 | 1.53 | COc1ccc(Nc2ccc(N(C)c3ccc(C4CCCCC4)cc3)cc2)c(C(=O)O)c1 [CP-522] | –
96 | – | – | CN(c1ccc(Nc2ccc(C34CC5CC(CC(C5)C3)C4)cc2Cl)cc1)c1ncccc1C(=O)O [Compound 125] | IC50 (TEAD2 [2]; [3]): 0.771 µM
– | 85 | 0.68 | COc1ccc(Nc2ccc(N(C)c3ccc(C4CC5CCC4C5)cc3)cc2)c(C(=O)O)c1 (stereo not drawn) [CP-538] | –
– | 87 | 0.382 | COc1ccc(Nc2ccc(N(C)c3ccc(C4CCCCC4)cc3)cc2C2CC2)c(C(=O)O)c1 [CP-626] | –
– | 85 | 2.4 | COc1ccc(Nc2ccc(N(C)c3ccc(C4CCCCC4)cc3)cc2F)c(C(=O)O)c1 [CP-549] | –
100 | – | – | O=C(O)c1cccnc1Nc1cnn(Cc2ccc(C34CC5CC(CC(C5)C3)C4)cc2Cl)c1 [Compound 112] | IC50 (TEAD2 [2]; [3]): 0.268 µM
87 | – | – | O=C(O)[C@@H]1CCCN1C(=O)c1ccc(Nc2ccc(C34CC5CC(CC(C5)C3)C4)cc2Cl)cc1 [Compound 48] | –

inhibition at 10 µM (TEAD2 [1]; Table 2) [%] | inhibition at 10 µM (TEAD2 [1]; Table 3) [%] | IC50 (TEAD2 [2]; [4]) [µM] | SMILES | also measured
98 | – | – | O=C(O)c1cccc(Nc2ccc(Nc3ccc(C45CC6CC(CC(C6)C4)C5)cc3Cl)cc2)n1 [Compound 90] | IC50 (TEAD2 [2]; [3]): 0.446 µM
– | 37 | – | COc1ccc(Nc2ccc(N(C)c3ccc(C(F)(F)F)cc3)cc2)c(C(=O)N(C)C)c1 [CP-607] | –
75 | – | – | O=C(O)c1ccccc1Nc1cnc(Oc2ccc(C34CC5CC(CC(C5)C3)C4)cc2Cl)cn1 [compound 440] | –
99 | – | – | CN(c1ccc(C23CC4CC(CC(C4)C2)C3)cc1)c1cccc(N(C)c2ncccc2C(=O)O)c1 [Compound 140] | –
– | 84 | – | COCCOc1ccc(Nc2ccc(N(C)c3ccc(C4CCCCC4)cc3)cc2)c(C(=O)O)c1 [CP-536] | –
– | 66 | – | CN(c1ccc(Nc2ncccc2C(=O)O)cc1)c1ccc(C2CCCCC2)cc1 [CP-558] | –
– | 51 | – | O=C(O)c1cccc(Nc2cccc(Nc3ccc(C4CCCCC4)cc3Cl)c2)n1 [CP-682] | –
– | 59 | – | Cc1cc(N(C)c2ccc(C3CCCCC3)cc2)ccc1Nc1ccc(C(=O)N2CC(C#N)C2)cc1C(=O)O [CP-678] | –
93 | – | – | O=C(Nc1ccccc1C(=O)O)c1ccc(Oc2ccc(C34CC5CC(CC(C5)C3)C4)cc2)cc1 [Compound 237] | –
99 | – | – | O=C(O)c1ccccc1Nc1ccc(Nc2ccc(C34CC5CC(CC(C5)C3)C4)cc2Cl)cc1 [Compound 31] | % of inhibition of TEAD2 palmitoylation at 10 μM (TEAD2 [1]; Table 2): 84% and 82%; IC50 (TEAD2 [2]; [3]): 0.377 µM
– | 89 | – | COc1ccc(Nc2ccc(Oc3ccc(C45CC6CC(C)(CC(C)(C6)C4)C5)cc3Cl)cc2C)c(C(=O)O)c1 [CP-564] | –
85 | – | – | CCN(c1ccc(N(CC)c2ccccc2C(=O)O)cc1)c1ccc(C23CC4CC(CC(C4)C2)C3)cc1 [Compound 163] | –
99 | – | – | CN(c1ccc(N(c2ccc(C(=O)O)cn2)c2ccc(C(=O)O)cn2)cc1)c1ccc(C23CC4CC(CC(C4)C2)C3)cc1 [Compound 204] | –
– | 51 | – | Cc1cc(N(C)c2ccc(C3CCCCC3)cc2)ccc1Nc1ccc(N2CC3(COC3)C2)cc1C(=O)O [CP-627] | –
69 | – | – | O=C(O)C1=C(C(=O)Nc2ccc(Nc3ccc(C45CC6CC(CC(C6)C4)C5)cc3Cl)cc2)CCC1 [compound 290] | –
91 | – | – | O=C(O)c1ccccc1Nc1cc(F)cc(Nc2ccc(C34CC5CC(CC(C5)C3)C4)cc2)c1 [Compound 30] | –
34 | – | – | CC(C)(C)OC(=O)N(c1ccc(Nc2ccc(C34CC5CC(CC(C5)C3)C4)cc2Cl)cn1)c1ccccc1C(=O)O [Compound 76] | –
– | 83 | – | COc1ccc(Nc2ccc(N(C)c3ccc(C4CCC(C(F)(F)F)CC4)cc3)cc2)c(C(=O)O)c1 (stereo not drawn) [CP-603] | –
